Results published in patent US20100144890A1, “USE OF A SURFACTANT FOR THE PREPARATION OF A FORMULATION FOR THE TREATMENT OF ADIPOSE DISEASES” (priority 2007, published 2010).
Read-outs that look alike come from different tables or passages of the source.

Tests used:
Assay type in all cases: cell-based
[1] = system: Primary human preadipocytes; assay: LDH release cytotoxicity assay (CytoTox-ONE) in undifferentiated preadipocytes
Protocol: (§1) Primary human preadipocytes were obtained from Promocell (Heidelberg, Germany). The Order No is C-12731 and the Lot-No 5112201 (abdomen, person).
Human preadipocytes cells were maintained in Preadipocyte Growth Medium (DMEM; BioWhitaker Cat: BE12-604F/U1; Lot N° 6MB0130 containing 10% heat-inactivated FCS and 1% penicillin-streptomycin) at 37° C. in a humidified atmosphere of 5% CO2. The cells were expanded in several T75 flasks to reach 60-80% confluence. To differentiate the preadipocytes (10^4 cells/well) were grown in 96 well plates to reach confluence. At this point (day 0), cells were switched to differentiation medium (DMEM, 10% FBS, 0.25 μM dexamethasone, 0.25 mM IBMX, and […] insulin) for 3 days, with one medium change in between. On day 3, the dexamethasone and IBMX was removed leaving insulin on the cells for an additional 4 days, changing the medium every 2 days. Thereafter, the cells were maintained in the original propagation DMEM, changing medium every 2-3 days until use. Plates where cells are >75% differentiated were used for experiments (day 10 post-induction). […]
Cytotoxicity assays: The CytoTox-ONE™ Homogeneous Membrane Integrity Assay from Promega was used to study LDH release (The Lot-No 234242/27/09/08). Differentiated adipocytes were treated with the test compounds for either 24 or 48 hours and the release of LDH detected using the fluorimetric assay CytoTox-ONE (see above) according to the manufacturer's instructions. Maximum LDH release was determined by complete lysis of cells using 0.1% Triton X-100. […] The fluorescence was detected in a Genius Pro apparatus using specific 96 microwells plates for fluorescence. […]
(§2) The percentages cytotoxicity by LDH release were calculated according to the manufacturer's instruction (http://www.promega.com/tbs/tb306/tb306.pdf)
(§3) According to this calculation the spontaneous release in untreated cells may indicate some cytotoxicity in untreated cells. […] This type of calculation may induce to misinterpretations and therefore the specific cytotoxicity was calculated according to the following formula: […]

[2] = system: differentiated human primary adipocytes; assay: LDH release cytotoxicity assay (CytoTox-ONE) in differentiated adipocytes
Protocol: as §1
Human preadipocytes cells were maintained in Preadipocyte Growth Medium (DMEM; BioWhitaker Cat: BE12-604F/U1; Lot N° 6MB0130 containing 10% heat-inactivated FCS and 1% penicillin-streptomycin) at 37° C. in a humidified atmosphere of 5% CO2. The cells were expanded in several T75 flasks to reach 60-80% confluence. To differentiate the preadipocytes (10^4 cells/well) were grown in 96 well plates to reach confluence. At this point (day 0), cells were switched to differentiation medium (DMEM, 10% FBS, 0.25 μM dexamethasone, 0.25 mM IBMX, and […] insulin) for 3 days, with one medium change in between. On day 3, the dexamethasone and IBMX was removed leaving insulin on the cells for an additional 4 days, changing the medium every 2 days. Thereafter, the cells were maintained in the original propagation DMEM, changing medium every 2-3 days until use. Plates where cells are >75% differentiated were used for experiments (day 10 post-induction). Adipocytes are round and full of easily distinguishable fat globules after 7 days of culture.
Cytotoxicity assays: The CytoTox-ONE™ Homogeneous Membrane Integrity Assay from Promega was used to study LDH release (The Lot-No 234242/27/09/08). Differentiated adipocytes were treated with the test compounds for either 24 or 48 hours and the release of LDH detected using the fluorimetric assay CytoTox-ONE (see above) according to the manufacturer's instructions. Maximum LDH release was determined by complete lysis of cells using 0.1% Triton X-100. Control cells treated with water alone were used to determine the baseline level of LDH release (0% cell death). The fluorescence was detected in a Genius Pro apparatus using specific 96 microwells plates for fluorescence. We used excitation filters in the 530-570 nm range and emission filters in the 580-620 nm range.
as §2, §3
S.C. values below 0% were considered arbitrary as 0% of substance-induced cytotoxicity.
To confirm the cytotoxic activity of the test substance at certain concentrations, undifferentiated (24 h treatment) and differentiated human primary adipocytes the cultures were treated with the indicated dilutions during 24 h and 48 h and the release of LDH measured in the supernatants.

[3] = system: Adipocytes (method: 3T3-L1 adherent cells); assay: Calcein-AM cytotoxicity / cell viability assay
Protocol: Cytotoxicity Assay in Adherent Cells (3T3-L1) using the Calcein-AM Method:
[…] […] […] Then, the wells were washed and the cells incubated with Calcein-AM (1 μM) (Molecular Probes) for 30 min. Then the fluorescence of viable cells was detected in a microtitre plate reader (TECAN Genius Pro). Using this method the uptake of Calcein-AM by viable cells is measured. Calcein-AM his hydrolysed by cellular esterases and then the fluorescence emitted by calcein is detected in the plate reader (excitation: 490 nm, emission: 515 nm)
[…] In this type of assay the higher RFU (relative fluorescent unit) correspond to viable cells.

[4] = Table 2, dilution 1:12800, 24 h

Compound	Adipocytes (LDH) 24 h, toxicity ([2]; Table 2, dilution 1:50, 24 h)	Adipocytes (LDH) 24 h, toxicity ([2]; Table 2, dilution 1:100, 24 h)	Adipocytes (LDH) 24 h, toxicity ([2]; Table 2, dilution 1:200, 24 h)	Adipocytes (LDH) 24 h, toxicity ([2]; Table 2, dilution 1:800, 24 h)	Adipocytes (LDH) 24 h, toxicity ([2]; Table 2, dilution 1:1600, 24 h)	Adipocytes (LDH) 24 h, toxicity ([2]; Table 2, dilution 1:3200, 24 h)	Adipocytes (LDH) 24 h, toxicity ([2]; Table 2, dilution 1:6400, 24 h)	Adipocytes (LDH) 24 h, toxicity [2, 4]	Adipocytes (Calcein-AM) 24 h, toxicity ([3]; dilution 1:50)	Adipocytes (Calcein-AM) 24 h, toxicity ([3]; dilution 1:100)	Adipocytes (Calcein-AM) 24 h, toxicity ([3]; dilution 1:200)	Adipocytes (Calcein-AM) 24 h, toxicity ([3]; dilution 1:400)	Adipocytes (Calcein-AM) 24 h, toxicity ([3]; dilution 1:6400)	Adipocytes (Calcein-AM) 24 h, toxicity ([3]; dilution 1:12800)	further results
polysorbate 80 [Test Substance 1]	Toxic	Toxic	Toxic	Toxic	Non-toxic	Non-toxic	Non-toxic	Non-toxic	Toxic	Toxic	Toxic	Toxic	Non-toxic	Non-toxic	Preadipocytes (LDH) 24 h, cytotoxicity [1]: Toxic (38.1%); Differentiated Adipocytes (LDH) 24 h, cytotoxicity [2]: Toxic (42.8%); Differentiated Adipocytes (LDH) 48 h, cytotoxicity [2]: Toxic (100%); Adipocytes (LDH) 24 h, toxicity ([2]; Table 2, dilution 1:400, 24 h): Toxic; Adipocytes (Calcein-AM) 24 h, toxicity ([3]; dilution 1:800): Toxic; Adipocytes (Calcein-AM) 24 h, toxicity ([3]; dilution 1:3200): Non-toxic
CCCCCCCCCCCCOS(=O)(=O)[O-].[Na+] [sodium laurylsulfate]															potency compared with the other inventive substances ([3]; cytotoxicity on adipocytes): even more potent; Adipocytes (Calcein-AM) 6 h, toxicity ([3]; dilution 1:4000): Toxic; Adipocytes (Calcein-AM) 24 h, toxicity ([3]; dilution 1:4000): Toxic; Adipocytes (Calcein-AM) 6 h, toxicity ([3]; dilution 1:16,000): Toxic; Adipocytes (Calcein-AM) 24 h, toxicity ([3]; dilution 1:16,000): Toxic; Adipocytes (Calcein-AM) 6 h, toxicity ([3]; dilution 1:512000): Non-Toxic; Adipocytes (Calcein-AM) 24 h, toxicity ([3]; dilution 1:512000): Non-Toxic
polyethoxylated castor oil [Test Substance 2]	Toxic	Toxic	Toxic	Non-toxic	Non-toxic	Non-toxic	Non-toxic	Non-toxic	Toxic	Toxic	Toxic	Toxic	Non-toxic	Non-toxic	Preadipocytes (LDH) 24 h, cytotoxicity ([1]; dilution 1:512, 24 h treatment): Toxic (32.6%); Preadipocytes (LDH) 24 h, toxicity ([1]; dilution 1:10000, 24 h treatment): Non-toxic; Differentiated Adipocytes (LDH) 24 h, cytotoxicity ([2]; Table 1, dilution 1:512, 24 h): Toxic (56.1%); Differentiated Adipocytes (LDH) 24 h, toxicity ([2]; Table 1, dilution 1:10000, 24 h): Non-toxic; Adipocytes (LDH) 24 h, cytotoxicity ([2]; Table 2, dilution 1:400, 24 h): Toxic (43.6%); Differentiated Adipocytes (LDH) 48 h, cytotoxicity ([2]; dilution 1:512, 48 h): Toxic (100%); Differentiated Adipocytes (LDH) 48 h, cytotoxicity ([2]; dilution 1:10000, 48 h): toxic (20.3%)
